From patent US9708368B2, “Linear peptide antibiotics” (priority 2012, dated 2017)
Converted amounts (≈) assume the structure as drawn. Read-outs that look alike come from different tables or passages of the source. Square brackets hold non-standard residues; d marks the D form. Peptide text beside a SMILES is read from it. * marks the point of attachment. ξ: configuration not given here. Biphenylcarbonyl(4'-Bu) = CCCCc1ccc(-c2ccc(C(=O)*)cc2)cc1; Benzoyl(4-hexyl) = CCCCCCc1ccc(C(=O)*)cc1; X5 = C[C@H](N*)B1OC2C3CCC(C3(C)C)C2(C)O1; NMeThr(3ξ) = CN[C@H](C(=O)O)C(C)O; Myristoyl = CCCCCCCCCCCCCC(=O)*; NMeK = CN[C@@H](CCCCN)C(=O)O; boroAla = C[C@H](N*)B(O)O; Dab = NCC[C@H](N)C(=O)O; boroGly = OB(O)CN*; ξP = O=C(O)C1CCCN1

Tests used:
[1] = test system: Escherichia coli MC4100 IMP-4213 in which transcription of the SPase encoding gene is under control of a tetracycline inducible promoter; details: Method A; E. coli MC4100 IMP-4213 with decreased SPase expression; 35° C., 22 hours
Procedure: (§1) In vitro antimicrobial activity of each compound was determined by measuring minimal inhibitor concentrations (MICs) using the broth micro-dilution technique as approved by the Clinical and Laboratory Standards Institute (CLSI). […] Cells were inoculated onto Trypyticase Soy Agar or Luria Agar containing 16 ng/ml of anhydrotetracycline respectively and grown at 35° C. for 20 hours. Inocula suspensions were made by scraping cells into 1 mL of testing media (cation adjusted Mueller Hinton Broth supplemented with 0.002% v/v Tween-80) and diluting to a final OD600 nm of 0.01.
(§2) Test compounds were prepared in DMSO at a concentration of 10 mg/ml. […] Inocula suspensions were added to the two fold serial dilutions of test compounds to a final density of OD OD600 nm of 0.0005 and incubated stationary at 35° C. for 22 hours, after which the plates were examined visually.

[2] = test system: Methicillin Resistant Staphylococcus aureus strain USA 300 (NRS384); details: Method A; MRSA USA 300 (NRS384); 35° C., 22 hours
Procedure: as §1, §2

S. aureus SPase [3] = target: T1, S. aureus SPase (Staphylococcus aureus, UniProt P0A070); assay: biochemical
Procedure: (§3) Full length His-tagged S. aureus SPase protein was expressed similarly from E. coli BL21(DE3) containing the plasmid pCDF1-SaSpsB and purified similarly to the E. coli protein with the following exceptions. […] Protein purity was judged to exceed 95% by visual inspection of SDS-PAGE followed by Comassie staining. All protein concentrations were determined by BCA assay.
(§4) Reactions were initiated by the addition of substrate to a final concentration of 20 μM. Reaction progress was monitored by measuring the increase in fluorescence signal (excitation at 314 nm, emission at 416 nm) using a SpectraMax M2 fluorescence microplate reader. […] Three-folder serial dilutions of test compounds, starting at 10 μM, were prepared in enzyme mix solution and incubated at room temperature for 10 minutes. Following this incubation, fluorogenic substrate was added to a final concentration of 20 μM and the increase in fluorescence, corresponding to substrate cleavage, was monitored continuously at room temperature for 1 hour. Initial reaction rates were calculated based on the rate of increase in fluorescence during the reaction. Reaction rates were plotted as a function of compound concentration, and IC50 values are determined nonlinear regression analysis (SoftMaxPro 5.4, Molecular Devices™) of the sigmoidal dose-response curve.

E. coli SPase = E. coli SPase (Escherichia coli, UniProt P00803); assay: Biochemical SPase activity assay (fluorogenic peptide substrate), E. coli enzyme
S. aureus SPase [4] = target: T1, S. aureus SPase; details: read-out: IC 50 (nM) S. aureus
Procedure: as §3, §4

T1 sequence (P0A070 whole entry): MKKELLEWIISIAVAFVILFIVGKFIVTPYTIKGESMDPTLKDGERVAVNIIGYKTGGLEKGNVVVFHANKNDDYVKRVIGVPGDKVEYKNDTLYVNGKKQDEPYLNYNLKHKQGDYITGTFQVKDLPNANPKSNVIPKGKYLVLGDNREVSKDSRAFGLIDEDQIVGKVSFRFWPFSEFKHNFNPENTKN
Sequence of E. coli SPase (P00803 whole entry): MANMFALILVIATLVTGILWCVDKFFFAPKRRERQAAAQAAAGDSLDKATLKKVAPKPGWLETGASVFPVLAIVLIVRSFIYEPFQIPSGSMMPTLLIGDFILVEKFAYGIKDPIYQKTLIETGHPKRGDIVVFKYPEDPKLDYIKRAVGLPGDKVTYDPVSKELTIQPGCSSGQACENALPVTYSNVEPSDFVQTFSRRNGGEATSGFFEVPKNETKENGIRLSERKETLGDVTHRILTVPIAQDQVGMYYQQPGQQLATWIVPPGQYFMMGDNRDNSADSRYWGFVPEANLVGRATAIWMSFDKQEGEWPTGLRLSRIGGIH

Row | Compound | MIC (μg/mL) E. coli [1] | MIC (μg/mL) S. aureus [2] | IC50 (S. aureus SPase [3]) | IC50 (E. coli SPase) | IC50 (S. aureus SPase [4]) | IC50 (E. coli SPase; read-out: IC 50 (nM) E. coli, E. coli SPase 2.5 nM, substrate 20 μM, 10 minutes pre-incubation)
1 | CCCCc1ccc(-c2ccc(C(=O)N[C@H](CO)C(=O)N[C@H](C)C(=O)NCC(=O)N3CCCC3C(=O)N[C@@H](C)C(=O)N[C@@H](CC(N)=O)C(=O)NCB(O)O)cc2)cc1 (some centres unmarked) [Compound 117] ({Biphenylcarbonyl(4'-Bu)}-[dS][dA]G[ξP]AN-boroGly) | >64 µg/mL | >64 µg/mL | 350 nM | 300 nM |  | 
2 | CCCCc1ccc(-c2ccc(C(=O)N[C@@H](CCN)C(=O)N[C@H](C(=O)N[C@@H](C)C(=O)N[C@@H](CCCCN)C(=O)N[C@@H](C)B(O)O)[C@@H](C)O)cc2)cc1 [Compound 238] ({Biphenylcarbonyl(4'-Bu)}-[Dab]TAK-boroAla) |  |  |  |  | 33 nM | 4.6 nM
3 | CCCCCCCCCC(=O)N[C@@H](CC(C)C)C(=O)N[C@H](C(=O)N1CCC[C@@H]1C(=O)N[C@H](C(=O)N[C@@H](C)C(=O)N[C@@H](Cc1ccc(O)cc1)C(=O)NC(C)C(=O)C(=O)NC)C(C)O)C(C)O (mixture of isomers) [Compound 111] | >64 µg/mL | >64 µg/mL | 18000 nM | 4900 nM |  | 
4 | CCCCc1ccc(-c2ccc(C(=O)N[C@H](CO)C(=O)N[C@H](C)C(=O)NCC(=O)N(C)[C@@H](CCCCN)C(=O)N[C@@H](C)C(=O)N[C@@H](CC(N)=O)C(=O)NCB(O)O)cc2)cc1 [Compound 120] ({Biphenylcarbonyl(4'-Bu)}-[dS][dA]G[NMeK]AN-boroGly) | 32 µg/mL (≈ 37.5 µM) | >64 µg/mL | 100 nM | 1600 nM |  | 
5 | CCCCCCc1ccc(C(=O)N[C@H](CO)C(=O)N[C@H](C)C(=O)NCC(=O)N(C)[C@H](C(=O)N[C@@H](C)C(=O)N[C@@H](CC(N)=O)C(=O)NCC=O)C(C)O)cc1 (some centres unmarked) [Compound 101] ({Benzoyl(4-hexyl)}-[dS][dA]G[NMeThr(3ξ)]ANG-aldehyde) | >64 µg/mL | >64 µg/mL | 86 nM | 11000 nM |  | 
6 | CCCCCCCCCCCCCC(=O)N[C@H](CO)C(=O)N[C@H](C)C(=O)NCC(=O)N(C)[C@H](C(=O)N[C@@H](C)C(=O)N[C@@H](CC(C)C)C(=O)N[C@@H](C)B1OC2C3CCC(C3(C)C)C2(C)O1)C(C)O (some centres unmarked) [Compound 123] (Myristoyl-[dS][dA]G[NMeThr(3ξ)]AL-X5) | 25 µg/mL (≈ 26.4 µM) | 64 µg/mL (≈ 67.5 µM) | 42 nM | 220 nM |  | 
7 | CCCCCCc1ccc(C(=O)N[C@H](CO)C(=O)N[C@H](C)C(=O)NCC(=O)N(C)[C@H](C(=O)N[C@@H](C)C(=O)N[C@@H](CC(C)C)C(=O)NCC=O)C(C)O)cc1 (some centres unmarked) [Compound 102] ({Benzoyl(4-hexyl)}-[dS][dA]G[NMeThr(3ξ)]ALG-aldehyde) | >64 µg/mL | >64 µg/mL | 9.7 nM | 18000 nM |  | 
